Source: patent publication EP0366273A1, “Benzopyran derivatives with smooth muscle relaxant activity” (BEECHAM GROUP PLC, priority 1988, dated 1990)

Tests used:
[1] = system: guinea pig tracheal spiral preparations; assay: Bronchodilation in vitro; guinea pig tracheal spiral preparations; format: cell-based; details: relaxation relative to total relaxation evoked by 10⁻³M isoprenaline
Procedure: (a) Bronchodilation in vitro; guinea pig tracheal spiral preparations.
Male guinea pigs (300-600g) were stunned by a blow to the head and bled from the carotid artery. The trachea was exposed, dissected free of connective tissue, and transferred to oxygenated krebs solution at 37°C. Next, spirals (2 per trachea) were prepared by cutting the whole trachea spirally along its longitudinal axis and then dividing this spiral lengthwise. Each preparation was mounted, using silk thread, in a 10ml organ bath filled with krebs solution at 37°C and bubbled with 5% CO₂ with O₂. The resting tension of the preparations was set at 2g and changes in muscle tension were monitored isometrically by means of a UFI (2oz) force and displacement transducer (Ormed Ltd) connected to a Linseis pen recorder. […] During this equilibration period the preparations were washed by upward displacement at 15 minute intervals and, if necessary, the resting tension was readjusted to 2g using a mechanical micromanipulator system.
Once a steady resting tension had been obtained, the preparations were dosed cumulatively with the test compound (10⁻⁸-2x10⁻⁵M), and finally a maximum relaxation achieved by addition of 10⁻³M isoprenaline. The fall in tension evoked by the test compound was expressed as a percentage of the total relaxation evoked in the presence of 10⁻³M isoprenaline. […]

[2] = system: Spontaneously hypertensive rats; assay: Blood pressure lowering activity, tail cuff method; format: in vivo; details: dose 1 mg/kg, initial blood pressure 265 ± 8 mmHg, 6 rats
Procedure: Blood Pressure Lowering Activity
Systolic blood pressures were recorded by a modification of the tail cuff method described by I.M. Claxton, M.G. Palfreyman, R.H. Poyser, R.L. Whiting, European Journal of Pharmacology, 37, 179 (1976). A W+W BP recorder, model 8005 was used to display pulses.Prior to all measurements rats were placed in a heated environment (33.5 ± 0.5°C) before transfer to a restraining cage. Each determination of blood pressure was the mean of at least 6 readings. Spontaneously hypertensive rats (ages 12-18 weeks) with systolic blood pressures >180 mmHg were considered hypertensive.

## CC1(C)Oc2ccc(C#N)cc2C(N2CCCC2=O)C1=O (centres unmarked) [Example 1, 6-Cyano-3,4-dihydro-2,2 dimethyl-4-(2-oxopyrrolidin-1-yl)-2H-1-benzopyran-3-one]
[1]
  Intrinsic Activity: 0.89
[2]; 1 h post dose
  % Change in Systolic Blood Pressure: -27 ± 5 (6 rats) %
[2]; 2 h post dose
  % Change in Systolic Blood Pressure: -24 ± 1 (6 rats) %
[2]; 4 h post dose
  % Change in Systolic Blood Pressure: -19 ± 6 (6 rats) %
[2]; 6 h post dose
  % Change in Systolic Blood Pressure: -25 ± 5 (6 rats) %
